Like-named read-outs stand apart in the source and are kept apart here. No end group written: not given here.
T1: human TAS1R2-WT/TAS1R3-M110T (Homo sapiens, UniProt Q7RTX0+Q8TE23, M110T)
T1 construct: expressed in transfected cells; host or cells: HEK293T stably expressing Gα16gust44
T1 sequence (Q8TE23 20-839): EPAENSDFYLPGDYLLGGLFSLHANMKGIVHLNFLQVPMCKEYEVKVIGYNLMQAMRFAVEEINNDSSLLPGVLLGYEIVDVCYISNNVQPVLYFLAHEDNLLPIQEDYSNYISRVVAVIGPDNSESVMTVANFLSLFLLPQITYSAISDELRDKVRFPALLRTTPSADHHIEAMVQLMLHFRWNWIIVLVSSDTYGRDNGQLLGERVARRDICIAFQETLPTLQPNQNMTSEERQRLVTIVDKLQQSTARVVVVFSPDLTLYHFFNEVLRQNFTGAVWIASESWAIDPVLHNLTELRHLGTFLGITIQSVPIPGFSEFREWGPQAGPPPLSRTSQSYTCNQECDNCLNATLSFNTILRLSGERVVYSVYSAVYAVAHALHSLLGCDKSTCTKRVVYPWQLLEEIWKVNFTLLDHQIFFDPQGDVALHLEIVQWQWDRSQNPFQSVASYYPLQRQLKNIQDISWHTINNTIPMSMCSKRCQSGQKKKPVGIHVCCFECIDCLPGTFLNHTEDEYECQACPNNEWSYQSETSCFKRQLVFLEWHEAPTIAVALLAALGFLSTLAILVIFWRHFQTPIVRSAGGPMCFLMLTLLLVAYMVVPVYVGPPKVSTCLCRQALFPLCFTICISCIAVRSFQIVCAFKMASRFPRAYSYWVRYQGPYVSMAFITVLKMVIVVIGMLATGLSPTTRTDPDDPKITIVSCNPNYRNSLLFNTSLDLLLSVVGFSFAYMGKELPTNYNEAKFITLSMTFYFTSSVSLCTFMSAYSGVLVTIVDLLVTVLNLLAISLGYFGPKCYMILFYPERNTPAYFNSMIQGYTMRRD
T1 sequence (Q7RTX0 21-852 M110T): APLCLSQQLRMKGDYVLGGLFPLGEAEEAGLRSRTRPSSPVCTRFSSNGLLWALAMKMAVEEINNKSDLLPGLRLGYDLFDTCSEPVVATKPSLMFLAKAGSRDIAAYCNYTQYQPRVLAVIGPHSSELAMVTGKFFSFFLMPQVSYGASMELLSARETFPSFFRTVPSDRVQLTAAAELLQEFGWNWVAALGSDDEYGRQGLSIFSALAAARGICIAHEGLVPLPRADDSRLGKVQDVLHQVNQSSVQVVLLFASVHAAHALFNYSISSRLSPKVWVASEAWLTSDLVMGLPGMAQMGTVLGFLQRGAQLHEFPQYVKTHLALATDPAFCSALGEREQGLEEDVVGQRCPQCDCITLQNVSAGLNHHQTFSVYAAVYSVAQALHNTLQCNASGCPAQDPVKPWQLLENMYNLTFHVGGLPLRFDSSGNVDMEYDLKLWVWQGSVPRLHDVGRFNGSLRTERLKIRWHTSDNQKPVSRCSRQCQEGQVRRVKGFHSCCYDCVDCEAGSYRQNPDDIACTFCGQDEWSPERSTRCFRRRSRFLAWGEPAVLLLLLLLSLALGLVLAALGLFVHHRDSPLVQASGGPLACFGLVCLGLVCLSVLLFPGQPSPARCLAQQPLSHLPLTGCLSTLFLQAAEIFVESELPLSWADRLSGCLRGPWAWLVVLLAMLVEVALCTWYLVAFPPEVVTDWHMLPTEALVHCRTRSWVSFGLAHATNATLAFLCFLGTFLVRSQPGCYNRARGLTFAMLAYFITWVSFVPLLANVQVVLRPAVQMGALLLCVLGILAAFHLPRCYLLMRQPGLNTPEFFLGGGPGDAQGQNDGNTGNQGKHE

B1: thaumatin (protein)
chain: ATFEIVNRCSYTVWAAASKGDAALDAGGRQLNSGESWTINVEPGTKGGKIWARTDCYFDDSGSGICKTGDCGGLLRCKRFGRPPTTLAEFSLNQYGKDYIDISNIKGFNVPMDFSPTTRGCRGVRCAADIVGQCPAKLKAPGGGCNDACTVFQTSEYCCTTGKCGPTEYSRFFKRLCPDAFSYVLDKPTTVTCPGSSNYRVTFCPTA
modifications: Eight disulfides
notes: sweet-tasting plant protein, E957

Biological target: T1, human TAS1R2-WT/TAS1R3-M110T
Test: Calcium mobilisation assay, TAS1R2-WT with TAS1R3 variant M110T
Type: cell-based
Conditions: for Max ΔF/F0: maximal signal amplitude
Source text: The coding sequences for TAS1R2 and TAS1R3 were commercially synthesised, and the human codon was optimised for expression in human cells. The coding sequences of human TAS1R2 and TAS1R3 were subcloned and inserted into the mammalian expression vectors pcDNA6/myc-HisA and pcDNA4/myc-HisA (Invitrogen; Thermo Fisher Scientific; Illkirch, France) between the EcoRI and NotI restriction sites, generating the plasmids pcDNA6-TAS1R2 and pcDNA4-TAS1R3, respectively. To increase protein expression in mammalian cells, an upstream start codon was used, which was a sequence called MAX, corresponding to the QBI SP163 element also described in pcDNA4-HisMax (Invitrogen; Thermo Fisher Scientific; Illkirch, France). To measure the expression level of the receptor by immunohistochemistry, we used the FLAG sequence ([…]) in the C-terminal position, which encodes the FLAG tag epitope. SNP variants of TAS1R2 and TAS1R3 were constructed based on […], respectively, using site-directed mutagenesis (Genewiz; Leipzig, Germany).
The HEK293T cells were kindly provided by Jay P. Slack (Givaudan Flavors Corporation; Cincinnati, OH, USA). HEK293T cells stably transfected with Gα16gust44 [43, 67] were seeded in poly-D-lysine-coated clear-bottom black 96-well plates (0.35 × 10^5 cells/well) in high-glucose DMEM supplemented with 2 mM GlutaMAX, 10% dialysed foetal bovine serum with penicillin/streptomycin and G418 (400 μg/mL) at 37 °C and 6.3% CO2 in a humidified atmosphere as previously reported. […] As a negative control, HEK293T cells were mock-transfected with the empty expression vector. After a further 24 h of incubation, the HEK293T cells were washed with C1 buffer (130 mM NaCl, 5 mM KCl, 10 mM HEPES pH 7.4 and 2 mM CaCl2). The 96-well plates containing the cells were then stimulated with sweet-tasting compounds. […] Different concentration ranges were tested depending on the sweet compound injected. The Ca^2+ changes were expressed as fractional changes in fluorescent light intensity: ΔF/F = (F − F0)/F0, where F was the fluorescent light intensity at each point, and F0 was the value of emitted fluorescent light prior to stimulus application. To calculate dose–response relationships, the changes in fluorescence upon stimulus application were averaged, mock-subtracted and baseline-corrected. The dose–response data obtained were adjusted using a 4-parameter logistic equation. The half-maximal effective concentrations (EC50 values) and maximal signal amplitudes were calculated using SigmaPlot software (version 15.0) (Systat Software; San Jose, CA, USA).
For in vitro calcium mobilisation assay performed on hTAS1R2-SNPs, hTAS1R3-SNPs and mTAS1R3-I60T, 6 to 7 concentrations were tested for each sweet compound, plus buffer alone. All concentration–receptor combinations were measured in duplicate, and each experiment was repeated at least 4 times (8 wells/concentration). Results were expressed for each concentration as ΔF/F mean ± SEM and represented as dose–response curves.

Molecule	R1 = Variant EC50/WT EC50	Max ΔF/F0	EC50 (read-out: EC50) [µM]	EC50 (brazzein) [µg/mL]
CC1=CC(=O)NS(=O)(=O)O1 [Acesulfame K, acesulfame K]	1.7	0.20 ± 0.01	1060 ± 648	–
O=S(=O)(O)NC1CCCCC1 [Cyclamate, cyclamate]	–	–	2620 ± 98	–
C[C@H](CC[C@@H](O[C@@H]1O[C@H](CO[C@@H]2O[C@H](CO)[C@@H](O)[C@H](O)[C@H]2O)[C@@H](O)[C@H](O)[C@H]1O[C@@H]1O[C@H](CO)[C@@H](O)[C@H](O)[C@H]1O)C(C)(C)O)[C@H]1CC[C@@]2(C)[C@@H]3CC=C4[C@@H](CC[C@H](O[C@@H]5O[C@H](CO[C@@H]6O[C@H](CO)[C@@H](O)[C@H](O)[C@H]6O)[C@@H](O)[C@H](O)[C@H]5O)C4(C)C)[C@]3(C)[C@H](O)C[C@]12C [Mogroside V, mogroside V]	3.0	0.43 ± 0.02	94.5 ± 8.4	–
COc1ccc(CCC(=O)c2c(O)cc(O[C@@H]3O[C@H](CO)[C@@H](O)[C@H](O)[C@H]3O[C@@H]3O[C@@H](C)[C@H](O)[C@@H](O)[C@H]3O)cc2O)cc1O [NHDC, neohesperidin dihydrochalcone]	4.0	0.48 ± 0.02	203 ± 17.1	–
COC(=O)[C@H](Cc1ccccc1)NC(=O)[C@H](CC(=O)O)NCCC(C)(C)C [Neotame]	2.2	0.19 ± 0.01	2.7 ± 0.29	–
C=C(C)[C@@H]1CC=C(/C=N/O)CC1 [Perillartine, perillartine]	3.0	1.31 ± 0.21	41.1 ± 19.4	–
C=C1C[C@@]23CC[C@H]4[C@@](C)(CCC[C@@]4(C)C(=O)O[C@@H]4O[C@H](CO)[C@@H](O)[C@H](O[C@@H]5O[C@H](CO)[C@@H](O)[C@H](O)[C@H]5O)[C@H]4O[C@@H]4O[C@H](CO)[C@@H](O)[C@H](O)[C@H]4O)[C@@H]2CC[C@]1(O[C@@H]1O[C@H](CO)[C@@H](O)[C@H](O[C@@H]2O[C@H](CO)[C@@H](O)[C@H](O)[C@H]2O)[C@H]1O[C@@H]1O[C@H](CO)[C@@H](O)[C@H](O)[C@H]1O)C3 [Rebaudioside M, rebaudioside M]	2.6	0.38 ± 0.04	103 ± 18	–
OC[C@H]1O[C@H](O[C@]2(CCl)O[C@H](CCl)[C@@H](O)[C@@H]2O)[C@H](O)[C@@H](O)[C@H]1Cl [Sucralose]	2.6	0.11 ± 0.02	282 ± 101	–
brazzein (QDKCKKVYENYPVSKCQLANQCNYDCKLDKHARSGECFYDEKRNLQCICDYCEY; ends and bridges not checked; cysteine pairing not given here; UniProt P56552 1-54, looked up) [sweet-tasting protein obtained by recombinant production using the yeast Pichia pastoris]	2.0	0.68 ± 0.01	–	221.5 ± 11.3
thaumatin	1.6	0.38 ± 0.01	–	–
B1	–	–	16.3 ± 0.9	–
